Key:
[1] = molecular target: T1, heteromeric TRPC4:TRPC1 (Homo sapiens, UniProt Q9UBN4); assay: Whole-cell recordings, HEK293 co-expressing TRPC4 and TRPC1; type: cell-based; details: 30 nM
T1 construct: expressed in transfected cells; host or cells: HEK293, transiently transfected
From the text: Müller, Niemeyer, et al., Schaefer & Thorn-Seshold 2025: Ideal Efficacy Photoswitching of TRPC4/5 in Tissue 3.3 Activation of heteromeric TRPC4:TRPC1 and TRPC5:TRPC1
Supplementary Figure 15: Photoswitching of ionic currents through heteromeric TRPC4:TRPC1 and TRPC5:TRPC1 channel complexes. Whole cell recordings from HEK293 cells that were transiently transfected to express the indicated TRPC isoforms were obtained in the whole cell mode with a voltage and photoswitching paradigm as illustrated in (A). (B-D) Superimposed recordings of 20 consecutive sweeps are shown for cells that ony express TRPC4 or TRPC5 (left), and for cells that co-express the respective TRPC channel along with TRPC1 (right). Note the characteristic change of the current-voltage relationship with smaller inward currents and stronger outward rectification in cells that co-express TRPC1. […]
or 10 nM (all other panels). The data shown are representative for 4-12 patched cells, each.
Currents through heteromeric complexes that are composed of TRPC4:TRPC1 or TRPC5:TRPC1 subunits can be unequivocally recognized on the basis of their unique biophysical properties with smaller unitary and global inward current amplitudes and a marked outward rectification.44 We show […]
also the heteromeric complexes TRPC5:TRPC1 and TRPC4:TRPC1 that are formed upon co-expression with TRPC1 (Supplementary Fig. 15). […]

[2] = test system: mouse small intestine segments; assay: Spontaneous motility of atropine-paralysed intestinal segments, video imaging with 365/447 nm
From the text: Müller, Niemeyer, et al., Schaefer & Thorn-Seshold 2025: Ideal Efficacy Photoswitching of TRPC4/5 in Tissue 7 Spontaneous motility and isometric contractility (Fig. 6)
After sacrificing mice in accordance to the European (Council Directive 2010/63/EU) and German guidelines for the welfare of experimental animals, the abdomen was opened, and intestinal loops were mobilised. Ileal segments were obtained starting 10 mm from the ileocoecal junction. Ileal segments with a length of 3 mm for myography experiments or with a length of 8-12 mm for observation of spontaneous movement were cut out and flushed with carbogen-equilibrated KBRS.
The adventitial layer was carefully peeled off, using a pair of forceps. […]
Spontaneous motility: for macroscopic observation, ileal segments were placed in KBRS-filled 24-well plates, and treated with 300 nM atropine (which has long been known to override the inherent oscillatory bias of the gut nerve system to paralyse digestion) or its solvent. […] A time-lapse movie was recorded, and 365 nm or 447 nm LED were electronically switched to induce photoswitching. The recorded image stack was cut into substacks, covering a single well, each. The temporal variance of the shadow cast by the segments was calculated for consecutive 1 s bins and taken as a measure to obtain the temporal signature of the motility. […]

T1 sequence (Q9UBN4 whole entry): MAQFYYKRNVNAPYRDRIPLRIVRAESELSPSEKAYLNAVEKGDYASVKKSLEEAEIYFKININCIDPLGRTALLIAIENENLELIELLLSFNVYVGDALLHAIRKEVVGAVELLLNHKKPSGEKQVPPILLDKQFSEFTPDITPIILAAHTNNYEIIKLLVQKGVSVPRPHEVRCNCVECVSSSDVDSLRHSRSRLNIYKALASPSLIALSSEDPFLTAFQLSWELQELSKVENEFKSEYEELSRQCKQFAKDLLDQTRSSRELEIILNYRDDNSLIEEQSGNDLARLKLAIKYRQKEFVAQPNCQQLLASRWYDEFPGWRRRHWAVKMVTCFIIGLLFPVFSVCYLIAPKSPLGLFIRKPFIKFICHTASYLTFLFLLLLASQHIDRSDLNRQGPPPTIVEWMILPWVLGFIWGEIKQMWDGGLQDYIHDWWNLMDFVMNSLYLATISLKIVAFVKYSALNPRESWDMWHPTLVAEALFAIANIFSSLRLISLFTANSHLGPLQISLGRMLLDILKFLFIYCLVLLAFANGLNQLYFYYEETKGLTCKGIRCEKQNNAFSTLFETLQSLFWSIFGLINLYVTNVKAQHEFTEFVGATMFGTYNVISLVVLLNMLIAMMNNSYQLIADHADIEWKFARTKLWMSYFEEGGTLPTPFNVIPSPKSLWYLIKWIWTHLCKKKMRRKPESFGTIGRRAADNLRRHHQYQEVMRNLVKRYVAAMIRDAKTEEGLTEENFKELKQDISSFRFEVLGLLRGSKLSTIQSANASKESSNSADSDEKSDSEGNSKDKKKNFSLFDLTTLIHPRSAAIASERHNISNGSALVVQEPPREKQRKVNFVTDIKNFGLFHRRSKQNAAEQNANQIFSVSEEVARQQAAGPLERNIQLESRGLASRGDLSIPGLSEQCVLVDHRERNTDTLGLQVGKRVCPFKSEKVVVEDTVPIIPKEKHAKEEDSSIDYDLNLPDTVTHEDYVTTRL
T1 sequence (P48995 whole entry partner): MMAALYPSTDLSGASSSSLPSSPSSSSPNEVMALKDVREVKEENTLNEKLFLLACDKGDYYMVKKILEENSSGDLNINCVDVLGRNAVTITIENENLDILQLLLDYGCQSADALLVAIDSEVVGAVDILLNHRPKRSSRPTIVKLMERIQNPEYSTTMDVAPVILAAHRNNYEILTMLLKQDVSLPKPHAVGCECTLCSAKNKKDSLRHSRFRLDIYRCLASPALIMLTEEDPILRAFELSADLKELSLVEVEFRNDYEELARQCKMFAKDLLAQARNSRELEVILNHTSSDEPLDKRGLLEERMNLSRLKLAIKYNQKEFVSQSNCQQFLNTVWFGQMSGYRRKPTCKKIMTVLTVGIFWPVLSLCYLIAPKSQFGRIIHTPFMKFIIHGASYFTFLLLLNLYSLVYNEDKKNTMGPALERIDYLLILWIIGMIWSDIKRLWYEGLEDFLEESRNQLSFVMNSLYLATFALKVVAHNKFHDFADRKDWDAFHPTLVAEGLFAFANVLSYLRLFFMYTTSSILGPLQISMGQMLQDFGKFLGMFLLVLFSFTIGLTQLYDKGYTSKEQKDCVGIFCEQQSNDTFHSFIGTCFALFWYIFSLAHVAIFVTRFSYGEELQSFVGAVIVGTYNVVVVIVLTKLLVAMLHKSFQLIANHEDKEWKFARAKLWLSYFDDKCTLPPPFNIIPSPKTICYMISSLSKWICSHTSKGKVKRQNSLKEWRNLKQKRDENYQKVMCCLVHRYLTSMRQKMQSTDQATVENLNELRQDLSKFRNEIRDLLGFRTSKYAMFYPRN

| SMILES | Chromocontrol over heteromeric TRPC4:TRPC1 currents versus homomeric channels [1] | Response of atropine-paralysed small intestine segments to UV illumination ([2]; 10 nM, 300 nM atropine, stopped by 447 nm) | Photoresponse of colon segments ([2]; treated colon segments) |
| --- | --- | --- | --- |
| Cn1c(=O)n(CCCO)c(=O)c2c1nc(Oc1ccc(N=Nc3ccccc3)c(Cl)c1)n2Cc1ccc(Cl)cc1 [AzHC] | comparable chromocontrol | – | – |
| Cn1c(=O)n(CCCO)c(=O)c2c1nc(Oc1ccc(N=Nc3ccccc3)c(OC(F)(F)F)c1)n2Cc1ccc(Cl)cc1 [AzPico] | comparable chromocontrol | initiated vigorous motions | no photoresponse |

— publication PMC12858405, “Ideal efficacy photoswitching for chromocontrol of TRPC4/5 channel functions in live tissues” (Nature Chemical Biology, 2026)
